# Experimental data: patent US20210128566A1, “NOVEL FUNCTIONALIZED PURINE-2,6-DIONES AND THEIR USE IN MEDICINE” (THOMAS HELLEDAYS STIFTELSE FÖR MEDICINSK FORSKNING, priority 2017, published 2021)
# Target: recombinant human NUDT5 (Homo sapiens, UniProt Q9UKK9)
# Assay: NUDT5 inhibitor activity by malachite green reporter assay
# Type: biochemical
# Settings: Table 3; 6 nM NUDT5, 50 μM ADP-Ribose, 15 minutes at room temperature
# Experimental: NUDT5 inhibitors were evaluated using a coupled enzymatic assay with detection of inorganic phosphate (Pi) using the malachite green assay. Following enzymatic hydrolysis of ADP-Ribose (Sigma-Aldrich A0572) by NUDT5, to yield AMP and ribose-5-phosphate, the latter product is continuously processed by a significant excess of alkaline phosphatase (Sigma-Aldrich, P0114). Formation of Pi is quantified based on the green complex (that absorbs at 630 nm) formed between malachite green and molybdate according to published procedure (Baykov, A. A., Evtushenko, O. A. and Avaeva, S. M., Anal Biochem, 171, 266-270 (1988)). Assay buffer consisted of 10 mM Tris-acetate at pH 8.0, 40 mM sodium chloride, 10 mM magnesium acetate, 0.005% Tween-20 and 1 mM dithiothreitol (DTT). The final conditions consisted of 6 nM recombinant human NUDT5, 50 μM ADP-Ribose and 10 U/ml of calf intestine alkaline phosphatase. The plates with compounds, enzymes and substrate were incubated at room temperature for 15 minutes, after which the reaction was terminated and the signal developed by the addition of the malachite green reagent using a MultiDrop (Thermo Scientific). Following vigorous shaking on plate shakers for a minimum of eight minutes the absorbance was read in a microplate reader (HidexSense) using a filter at 630 nm and a read time of 0.1 s per well. Inhibitors were used in dilutions from 100 μM to 1.7 nM in 3-fold dilution steps. Experiments were run in duplicate and confirmed in two independent experiments. IC50 values were determined by curve fitting using ExcelFit.
row,Structure (SMILES),IC50 [nM]
1,"Cn1c(=O)c2c(nc(NCCO)n2Cc2nnc(-c3ccc(Cl)c(Cl)c3)o2)n(C)c1=O [Example 2, 7-{[5-(3,4-dichlorophenyl)-1,3,4-oxadiazol-2-yl]methyl}-8-[(2-hydroxyethyl)amino]-1,3-dimethyl-2,3,6,7-tetrahydro-1H-purine-2,6-dione]",23.7
2,"Cn1c(=O)c2c(nc(N3CCCCC3)n2Cc2nnc(-c3ccc(Cl)c(Cl)c3)o2)n(C)c1=O [Example 9, 7-{[5-(3,4-dichlorophenyl)-1,3,4-oxadiazol-2-yl]methyl}-1,3-dimethyl-8-(piperidin-1-yl)-2,3,6,7-tetrahydro-1H-purine-2,6-dione]",15
3,"Cc1cccc(-c2nnc(Cn3c(N4CCN(c5ccccc5)CC4)nc4c3c(=O)n(C)c(=O)n4C)o2)c1 [Example 58, 1,3-dimethyl-7-{[5-(3-methylphenyl)-1,3,4-oxadiazol-2-yl]methyl}-8-(4-phenylpiperazin-1-yl)-2,3,6,7-tetrahydro-1H-purine-2,6-dione]",> 1000
4,"CCSc1nc2c(c(=O)n(C)c(=O)n2C)n1Cc1nnc(-c2ccc(Cl)c(Cl)c2)o1 [Example 6, 7-{[5-(3,4-dichlorophenyl)-1,3,4-oxadiazol-2-yl]methyl}-8-(ethylsulfanyl)-1,3-dimethyl-2,3,6,7-tetrahydro-1H-purine-2,6-dione]",36.9
5,"Cn1c(=O)c2c(nc(N3CCC(O)C3)n2Cc2nnc(-c3ccc(Cl)c(Cl)c3)o2)n(C)c1=O (stereo not drawn) [Example 34, 7-{[5-(3,4-dichlorophenyl)-1,3,4-oxadiazol-2-yl]methyl}-8-(3-hydroxypyrrolidin-1-yl)-1,3-dimethyl-2,3,6,7-tetrahydro-1H-purine-2,6-dione]",24.7
6,"COCCN1CCN(c2nc3c(c(=O)n(C)c(=O)n3C)n2Cc2nnc(-c3cccc(C)c3)o2)CC1 [Example 57, 8-[4-(2-methoxyethyl)piperazin-1-yl]-1,3-dimethyl-7-{[5-(3-methylphenyl)-1,3,4-oxadiazol-2-yl]methyl}-2,3,6,7-tetrahydro-1H-purine-2,6-dione]",> 1000
7,"Cn1c(=O)c2c(nc(N3CCCCCC3)n2Cc2nnc(-c3ccc(Cl)c(Cl)c3)o2)n(C)c1=O [Example 21, 8-(azepan-1-yl)-7-{[5-(3,4-dichlorophenyl)-1,3,4-oxadiazol-2-yl]methyl}-1,3-dimethyl-2,3,6,7-tetrahydro-1H-purine-2,6-dione]",50.3
8,"Cn1c(=O)c2c(nc(NC3CC3)n2Cc2nnc(-c3ccc(Cl)c(Cl)c3)o2)n(C)c1=O [Example 42, 8-(cyclopropylamino)-7-{[5-(3,4-dichlorophenyl)-1,3,4-oxadiazol-2-yl]methyl}-1,3-dimethyl-2,3,6,7-tetrahydro-1H-purine-2,6-dione]",26.4
9,"Cn1c(=O)c2c(nc(N3CCC(N)C3)n2Cc2nnc(-c3ccc(Cl)c(Cl)c3)o2)n(C)c1=O (stereo not drawn) [Example 25, 8-(3-aminopyrrolidin-1-yl)-7-{[5-(3,4-dichlorophenyl)-1,3,4-oxadiazol-2-yl]methyl}-1,3-dimethyl-2,3,6,7-tetrahydro-1H-purine-2,6-dione]",30

# Same assay, conditions: Table 4; 6 nM NUDT5, 50 μM ADP-Ribose, 15 minutes at room temperature
row,Structure (SMILES),IC50 [nM]
1,"Cn1c(=O)c2c(nc(Cl)n2Cc2nc(-c3ccc(Cl)cc3)no2)n(C)c1=O [Example 69, 8-chloro-7-{[3-(4-chlorophenyl)-1,2,4-oxadiazol-5-yl]methyl}-1,3-dimethyl-2,3,6,7-tetrahydro-1H-purine-2,6-dione]",296
2,"Cn1c(=O)c2c(nc(N3CCNCC3)n2Cc2nnc(-c3ccc4[nH]ncc4c3)o2)n(C)c1=O [Example 124, 7-{[5-(1H-indazol-5-yl)-1,3,4-oxadiazol-2-yl]methyl}-1,3-dimethyl-8-(piperazin-1-yl)-2,3,6,7-tetrahydro-1H-purine-2,6-dione]",309
3,"COc1cc(-c2nnc(Cn3c(NCCNS(C)(=O)=O)nc4c3c(=O)n(C)c(=O)n4C)o2)ccc1C [Example 133, N-{2-[(7-{[5-(3-methoxy-4-methylphenyl)-1,3,4-oxadiazol-2-yl]methyl}-1,3-dimethyl-2,6-dioxo-2,3,6,7-tetrahydro-1H-purin-8-yl)amino]ethyl}methanesulfonamide]",352
4,"COc1cc(-c2nnc(Cn3c(N4CCC(CN)CC4)nc4c3c(=O)n(C)c(=O)n4C)o2)ccc1C [Example 127, 8-[4-(aminomethyl)piperidin-1-yl]-7-{[5-(3-methoxy-4-methylphenyl)-1,3,4-oxadiazol-2-yl]methyl}-1,3-dimethyl-2,3,6,7-tetrahydro-1H-purine-2,6-dione]",32.9
5,"Cn1c(=O)c2c(nc(NCC(=O)OC(C)(C)C)n2Cc2nnc(-c3ccc(Cl)c(Cl)c3)o2)n(C)c1=O [Example 84, tert-butyl 2-[(7-{[5-(3,4-dichlorophenyl)-1,3,4-oxadiazol-2-yl]methyl}-1,3-dimethyl-2,6-dioxo-2,3,6,7-tetrahydro-1H-purin-8-yl)amino]acetate]",93.6
6,"COc1cc(-c2nnc(Cn3c(N4CC[C@@H](N(C)C)C4)nc4c3c(=O)n(C)c(=O)n4C)o2)ccc1C [Example 139, 8-[(3R)-3-(dimethylamino)pyrrolidin-1-yl]-7-{[5-(3-methoxy-4-methylphenyl)-1,3,4-oxadiazol-2-yl]methyl}-1,3-dimethyl-2,3,6,7-tetrahydro-1H-purine-2,6-dione]",265
7,"Cc1ccc(-c2cc(Cn3c(Cl)nc4c3c(=O)n(C)c(=O)n4C)no2)cc1 [Example 80, 8-chloro-1,3-dimethyl-7-{[5-(4-methylphenyl)-1,2-oxazol-3-yl]methyl}-2,3,6,7-tetrahydro-1H-purine-2,6-dione]",3790
8,"Cc1cc(-c2nnc(Cn3c(N4CCNCC4)nc4c3c(=O)n(C)c(=O)n4C)o2)ccc1Cl [Example 116, 7-{[5-(4-chloro-3-methylphenyl)-1,3,4-oxadiazol-2-yl]methyl}-1,3-dimethyl-8-(piperazin-1-yl)-2,3,6,7-tetrahydro-1H-purine-2,6-dione]",21.6
9,"Cc1ccc(-c2nnc(Cn3c(N4CCNCC4)nc4c3c(=O)n(C)c(=O)n4C)o2)cn1 [Example 125, 1,3-dimethyl-7-{[5-(6-methylpyridin-3-yl)-1,3,4-oxadiazol-2-yl]methyl}-8-(piperazin-1-yl)-2,3,6,7-tetrahydro-1H-purine-2,6-dione]",216
10,"CN(C)CCN(C)c1nc2c(c(=O)n(C)c(=O)n2C)n1Cc1nnc(-c2ccc(Cl)c(Cl)c2)o1 [Example 135, 7-{[5-(3,4-dichlorophenyl)-1,3,4-oxadiazol-2-yl]methyl}-8-{[2-(dimethylamino)ethyl](methyl)amino}-1,3-dimethyl-2,3,6,7-tetrahydro-1H-purine-2,6-dione]",96.3
11,"COc1ccc(-c2cc(Cn3c(N4CCNCC4)nc4c3c(=O)n(C)c(=O)n4C)on2)cc1 [Example 78, 7-{[3-(4-methoxyphenyl)-1,2-oxazol-5-yl]methyl}-1,3-dimethyl-8-(piperazin-1-yl)-2,3,6,7-tetrahydro-1H-purine-2,6-dione]",491
12,"Cn1c(=O)c2c(nc(N3CCNCC3)n2Cc2nnc(-c3ccc4cc[nH]c4c3)o2)n(C)c1=O [Example 120, 7-{[5-(1H-indol-6-yl)-1,3,4-oxadiazol-2-yl]methyl}-1,3-dimethyl-8-(piperazin-1-yl)-2,3,6,7-tetrahydro-1H-purine-2,6-dione]",80.5
13,"Cn1c(=O)c2c(nc(Cl)n2Cc2nnc(-c3ccc(F)cc3)o2)n(C)c1=O [Example 90, 8-chloro-7-{[5-(4-fluorophenyl)-1,3,4-oxadiazol-2-yl]methyl}-1,3-dimethyl-2,3,6,7-tetrahydro-1H-purine-2,6-dione]",4390
14,"Cn1c(=O)c2c(nc(Cl)n2Cc2nnc(-c3ccc(C(F)(F)F)cc3)o2)n(C)c1=O [Example 102, 8-chloro-1,3-dimethyl-7-({5-[4-(trifluoromethyl)phenyl]-1,3,4-oxadiazol-2-yl}methyl)-2,3,6,7-tetrahydro-1H-purine-2,6-dione]",484
15,"Cn1c(=O)c2c(nc(NCCS(=O)(=O)O)n2Cc2nnc(-c3ccc(Cl)c(Cl)c3)o2)n(C)c1=O [Example 82, 2-[(7-{[5-(3,4-dichlorophenyl)-1,3,4-oxadiazol-2-yl]methyl}-1,3-dimethyl-2,6-dioxo-2,3,6,7-tetrahydro-1H-purin-8-yl)amino]ethane-1-sulfonic acid]",454
16,"Cn1c(=O)c2c(nc(N3CCNC(C(F)(F)F)C3)n2Cc2nnc(-c3ccc(Cl)c(Cl)c3)o2)n(C)c1=O (stereo not drawn) [Example 134, 7-{[5-(3,4-dichlorophenyl)-1,3,4-oxadiazol-2-yl]methyl}-1,3-dimethyl-8-[3-(trifluoromethyl)piperazin-1-yl]-2,3,6,7-tetrahydro-1H-purine-2,6-dione]",140
17,"Cn1c(=O)c2c(nc(N3CCNCC3)n2Cc2nc(-c3ccc(Cl)cc3)no2)n(C)c1=O [Example 70, 7-{[3-(4-chlorophenyl)-1,2,4-oxadiazol-5-yl]methyl}-1,3-dimethyl-8-(piperazin-1-yl)-2,3,6,7-tetrahydro-1H-purine-2,6-dione]",57.4
18,"Cn1c(=O)c2c(nc(Cl)n2Cc2nnc(-c3ccc(Cl)cc3)o2)n(C)c1=O [Example 89, 8-chloro-7-{[5-(4-chlorophenyl)-1,3,4-oxadiazol-2-yl]methyl}-1,3-dimethyl-2,3,6,7-tetrahydro-1H-purine-2,6-dione]",620
